# Source: ChEMBL document CHEMBL3414500, “New polycyclic dual inhibitors of the wild type and the V27A mutant M2 channel of the influenza A virus with unexpected binding mode” (Eur J Med Chem, 2015)
# Active and inactive are the calls of the source. The rule behind the calls is not given here.
# Key:
# [1] = target: Matrix protein 2 (Influenza A virus) (UniProt P06821); type: cell membranes; settings: Influenza A virus (A/udorn/1972(H3N2)); 100 uM
# Matrix protein 2 = Matrix protein 2 (Influenza A virus, UniProt P06821); type: cell membranes, Influenza A virus (A/udorn/1972(H3N2))
# Influenza A virus [2] = assay: Antiviral activity against Influenza A virus (A/PR/8/34(H1N1)) infected in MDCK cells assessed as reduction of virus-induced cytopathic effect after 72 hrs by microscopic analysis; type: functional, organism-based; settings: A/Puerto Rico/8/1934(H1N1)
# Influenza A virus [3] = assay: Antiviral activity against Influenza A virus (A/PR/8/34(H1N1)) infected in MDCK cells assessed as cell viability after 72 hrs by MTS assay; type: functional, organism-based; settings: A/Puerto Rico/8/1934(H1N1)
# [4] = Antiviral activity against Influenza A virus (A/HK/7/87(H3N2)) infected in MDCK cells assessed as reduction of virus-induced cytopathic effect after 72 hrs by microscopic analysis; type: functional, cell-based, Influenza A virus (A/Hong Kong/7/1987(H3N2))
# [5] = Antiviral activity against Influenza A virus (A/HK/7/87(H3N2)) infected in MDCK cells assessed as cell viability after 72 hrs by MTS assay; type: functional, cell-based, Influenza A virus (A/Hong Kong/7/1987(H3N2))
# [6] = Antiviral activity against Influenza A virus (A/HK/7/87(H3N2)) infected in MDCK cells assessed as virus plaque reduction preincubated for 1 hr followed by compound wash out and incubated for 72 hrs by crystal violet staining; type: functional, cell-based, Influenza A virus (A/Hong Kong/7/1987(H3N2))
# [7] = Antiviral activity against Influenza A virus (A/HK/7/87(H3N2)) infected in MDCK cells assessed as 2-log10 reduction in virus yield after 24 hrs by RT-qPCR analysis; type: functional, Influenza A virus (A/Hong Kong/7/1987(H3N2))
# [8] = Cytotoxicity against MDCK cells assessed as cell viability after 72 hrs by MTS assay; type: cell-based, Canis lupus familiaris; settings: dog
# [9] = Cytotoxicity against MDCK cells assessed as alternations in cell morphology after 72 hrs; type: cell-based, Canis lupus familiaris; settings: dog
# Influenza B virus = assay: Antiviral activity against Influenza B virus (B/HK/5/72) infected in MDCK cells assessed as reduction of virus-induced cytopathic effect after 72 hrs by microscopic analysis; type: functional, cell-based; settings: B/Hong Kong/05/1972
# Chain of Matrix protein 2 (P06821 whole entry): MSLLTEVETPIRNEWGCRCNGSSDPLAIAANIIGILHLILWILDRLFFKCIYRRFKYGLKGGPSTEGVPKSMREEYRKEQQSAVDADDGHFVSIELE
# Chain of Matrix protein 2 (Influenza A virus) (P06821 whole entry): as above
Structure (SMILES),inhibition [1] [%],IC50 (Matrix protein 2) [µM],EC50 (Influenza A virus [2]) [µM],EC50 (Influenza A virus [3]) [µM],EC50 [4] [µM],EC50 [5] [µM],EC50 [6] [µM],EC99 [7] [µM],CC50 at 72 h [8] [µM],MCC at 72 h [9] [µM],Activity (Influenza B virus)
N=C(N)N1C[C@@H]2[C@H](C1)[C@@H]1[C@@H]3[C@H]4C=C[C@H]5[C@@H]3[C@H]2[C@H]2[C@@H]5[C@@H]4[C@@H]12,89.6,6.5,> 100,> 100,> 100,> 100,> 5,> 2,1.2,2,inactive
N=C(N)N1C[C@@H]2[C@H](C1)[C@@H]1[C@@H]3[C@H]4CC[C@H]5[C@@H]3[C@H]2[C@H]2[C@@H]5[C@@H]4[C@@H]12,90.6,3.7,> 100,> 100,> 100,> 100,> 5,> 2,4.6,7,inactive
N=C(N)N1C[C@@H]2[C@H](C1)[C@H]1C3CC4[C@H]([C@H]41)[C@@H]32,99,0.8,> 100,> 100,> 100,> 100,> 100,> 50,50,> 100,inactive
C1C2[C@@H]3[C@H]2[C@@H]2C1[C@H]3[C@@H]1CNC[C@@H]12,93.7,3.3,> 100,> 100,> 100,> 100,6.7,28,> 100,> 100,inactive
C1C[C@H]2[C@H]3[C@H]4[C@@H]1[C@@H]1[C@H]2[C@@H]2[C@H]3[C@@H]3CNC[C@@H]3[C@H]4[C@H]12,98.1,2.1,> 100,> 100,> 100,> 100,0.54,> 2,3.7,4,inactive
NC12CC3CC(CC(C3)C1)C2 [AMANTADINE],,,30,34,1.4,1.4,0.14,0.72,,,
CC(N)C12CC3CC(CC(C3)C1)C2 (stereo not given) [RIMANTADINE],,,7.6,5.1,0.81,0.15,0.02,1.77,,,
C1=C[C@H]2[C@H]3[C@H]4[C@@H]1[C@@H]1[C@H]2[C@@H]2[C@H]3[C@@H]3CNC[C@@H]3[C@H]4[C@H]12,96.4,2.6,> 100,> 100,> 100,> 100,0.37,3.45,11,20,inactive
Brc1ccc(CNC23CC4CC(CC(C4)C2)C3)s1,77,,,,,,,,,,
N=C(N)N1CC2C3CCC(C4CCC43)C2C1 (stereo not given),94.5,,,,,,,,,,
